Data reported in US9255100B2 (BAYER INTELLECTUAL PROPERTY GMBH, priority 2010, dated 2016).

Biological target: T1, N-terminally GST-tagged human full length recombinant Mps-1 kinase (Homo sapiens, UniProt P33981)
T1 construct: N-terminally GST-tagged human full length recombinant Mps-1 kinase; purchased Invitrogen, Karslruhe, Germany PV4071
T1 sequence (P33981 1-857): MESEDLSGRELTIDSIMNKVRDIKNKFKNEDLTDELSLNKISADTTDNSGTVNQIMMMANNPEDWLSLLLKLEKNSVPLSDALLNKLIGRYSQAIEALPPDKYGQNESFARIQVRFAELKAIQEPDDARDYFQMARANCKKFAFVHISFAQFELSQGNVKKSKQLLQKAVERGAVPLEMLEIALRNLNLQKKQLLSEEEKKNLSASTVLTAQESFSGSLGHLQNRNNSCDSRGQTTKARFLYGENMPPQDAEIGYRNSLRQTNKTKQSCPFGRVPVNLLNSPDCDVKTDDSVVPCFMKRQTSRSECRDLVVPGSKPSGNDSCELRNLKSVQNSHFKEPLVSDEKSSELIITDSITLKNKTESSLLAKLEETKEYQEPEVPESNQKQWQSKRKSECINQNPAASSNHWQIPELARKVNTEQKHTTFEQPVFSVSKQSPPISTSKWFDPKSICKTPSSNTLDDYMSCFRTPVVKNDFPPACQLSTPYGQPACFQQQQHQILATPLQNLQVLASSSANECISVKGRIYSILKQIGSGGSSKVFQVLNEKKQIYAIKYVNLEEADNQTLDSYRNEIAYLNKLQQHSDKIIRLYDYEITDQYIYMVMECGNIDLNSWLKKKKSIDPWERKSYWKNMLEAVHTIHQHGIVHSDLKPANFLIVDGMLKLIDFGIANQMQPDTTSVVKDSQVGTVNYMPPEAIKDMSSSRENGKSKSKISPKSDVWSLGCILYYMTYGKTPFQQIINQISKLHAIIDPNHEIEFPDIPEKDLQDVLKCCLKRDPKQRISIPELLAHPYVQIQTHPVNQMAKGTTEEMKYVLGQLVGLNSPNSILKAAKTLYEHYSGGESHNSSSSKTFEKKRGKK
Experiment: Mps-1 kinase assay (TR-FRET)
Format: biochemical
Conditions: Mps1 IC50 [nM], 10 μM ATP, 1 μM peptide substrate, 60 min at 22° C.
In short: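 GST-Mps-1 (full length, N-term tag) ~1 nM final, linear-range adjusted per lot; biotinylated peptide substrate. Detection: Eu-anti-pSer/Thr donor → SA-XLent acceptor TR-FRET, 1 h, 22° C. Inhibition of kinase activity.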

Structure (SMILES) | IC50
CC(C)CNc1cc(-c2ccncc2)nn2c(-c3ccc(C(=S)NC4CC4)cc3)cnc12 [Example 13, N-cyclopropyl-4-[8-(isobutylamino)-6-(pyridin-4-yl)imidazo[1,2-b]pyridazin-3-yl]benzenecarbothioamide] | 1.8 nM
CNc1ccccc1Oc1cc(NCCC(F)(F)F)c2ncc(-c3ccc(C(=O)NC4CC4)c(C)c3)n2n1 [Example 389, N-cyclopropyl-2-methyl-4-{6-[2-(methylamino)phenoxy]-8-[(3,3,3-trifluoropropyl)amino]imidazo[1,2-b]pyridazin-3-yl}benzamide] | 0.1 nM
Cc1cc(-c2cnc3c(NCCC(F)(F)F)cc(C4CC4)nn23)ccc1C(=O)NC1CC1 [Example 48, N-cyclopropyl-4-{6-cyclopropyl-8-[(3,3,3-trifluoropropyl)amino]imidazo[1,2-b]pyridazin-3-yl}-2-methylbenzamide] | 1.4 nM
Cc1cc(-c2cnc3c(NCCCC(C)O)cc(-c4ccccc4CO)nn23)ccc1C(=O)NC1CC1 (racemic) [Example 342, (RS)-N-cyclopropyl-4-{6-[2-(hydroxy-methyl)phenyl]-8-[(4-hydroxy-pentyl)amino]imidazo[1,2-b]pyridazin-3-yl}-2-methylbenzamide] | 6.9 nM
Cc1cc(-c2cnc3c(NCC(C)(C)O)cc(Oc4cccc(OC(C)C)c4)nn23)ccc1C(=O)NC1CC1 [Example 361, N-cyclopropyl-4-{8-[(2-hydroxy-2-methylpropyl)amino]-6-(3-isopropoxyphenoxy)imidazo[1,2-b]pyridazin-3-yl}-2-methylbenzamide] | 0.3 nM
C=Cc1cc(NCCC(F)(F)F)c2ncc(-c3ccc(-c4cnc(C5CC5)[nH]4)cc3)n2n1 [Example 22, 3-[4-(2-Cyclopropyl-1H-imidazol-5-yl)phenyl]-6-ethenyl-N-(3,3,3-trifluoropropyl)imidazo[1,2-b]pyridazin-8-amine] | 35.7 nM
Cc1cc(-c2cnc3c(NC[C@@H]4CCCO4)cc(-c4ccncc4)nn23)ccc1C(=O)NC1CC1 [Example 31, N-cyclopropyl-2-methyl-4-[6-(pyridin-4-yl)-8-{[(2S)-tetrahydrofuran-2-ylmethyl]amino}imidazo[1,2-b]pyridazin-3-yl]benzamide] | 1.1 nM
Cc1cc(-c2cnc3c(NCCC(F)(F)F)cc(Sc4ccc(Cl)cc4CO)nn23)ccc1C(=O)NC1CC1 [Example 392, 4-(6-{[4-chloro-2-(hydroxymethyl)phenyl]sulfanyl}-8-[(3,3,3-trifluoropropyl)amino]imidazo[1,2-b]pyridazin-3-yl)-N-cyclopropyl-2-methylbenzamide] | 0.4 nM
CNC(=O)c1ccc(-c2cnc3c(NCCN4CCOCC4)cc(Oc4ccccc4C)nn23)cc1C [Example 563, N,2-dimethyl-4-[6-(2-methylphenoxy)-8-{[2-(morpholin-4-yl)ethyl]amino}imidazo[1,2-b]pyridazin-3-yl]benzamide] | 4.3 nM
Cc1cc(-c2cnc3c(NCCC(F)(F)F)cc(S(=O)(=O)c4ccccc4)nn23)ccc1C(=O)NC1CC1 [Example 212, N-cyclopropyl-2-methyl-4-{6-(phenylsulfonyl)-8-[(3,3,3-trifluoropropyl)amino]imidazo[1,2-b]pyridazin-3-yl}benzamide] | < 1 nM
Cc1ccc(Oc2cc(NCCC(F)(F)F)c3ncc(-c4ccc(C(=O)NC5CC5)c(C)c4)n3n2)cc1 [Example 479, N-cyclopropyl-2-methyl-4-{6-(4-methylphenoxy)-8-[(3,3,3-trifluoro-propyl)amino]imidazo [1,2-b]pyridazin-3-yl} benzamide] | 0.2 nM
COc1ccccc1Sc1cc(NCCC(F)(F)F)c2ncc(-c3ccc(C(=O)NC4CC4)c(C)c3)n2n1 [Example 55, N-cyclopropyl-4-{6-[(2-methoxyphenyl)sulfanyl]-8-[(3,3,3-trifluoropropyl)amino]imidazo[1,2-b]pyridazin-3-yl}-2-methylbenzamide] | 1.2 nM
Cc1cc(-c2cnc3c(NCC(C)(C)O)cc(S(C)(=O)=O)nn23)ccc1C(=O)NC1CC1 [Example 18, N-cyclopropyl-4-{8-[(2-hydroxy-2-methylpropyl)amino]-6-(methylsulfonyl)imidazo[1,2-b]pyridazin-3-yl}-2-methylbenzamide] | 228 nM
c1cc(-c2cc(NC[C@@H]3CCCO3)c3ncc(-c4ccc(-c5cnc(C6CC6)[nH]5)cc4)n3n2)ccn1 [Example 4, 3-[4-(2-Cyclopropyl-1H-imidazol-5-yl)phenyl]-6-(pyridin-4-yl)-N-[(2S)-tetrahydrofuran-2-ylmethyl]imidazo[1,2-b]pyridazin-8-amine] | 20.6 nM
Cc1cc(F)cc(Sc2cc(NCC(C)(C)O)c3ncc(-c4ccc(C(=O)NC5CC5)c(C)c4)n3n2)c1 [Example 67, N-cyclopropyl-4-{6-[(3-fluoro-5-methylphenyl)sulfanyl]-8-[(2-hydroxy-2-methylpropyl)amino]imidazo[1,2-b]pyridazin-3-yl}-2-methylbenzamide] | 0.1 nM
Cc1cc(-c2cnc3c(NCC(C)(C)N)cc(-c4ccccc4CO)nn23)ccc1C(=O)NC1CC1 [Example 59, 4-{8-[(2-Amino-2-methylpropyl)amino]-6-[2-(hydroxymethyl)phenyl]imidazo[1,2-b]pyridazin-3-yl}-N-cyclopropyl-2-methylbenzamide] | 32.5 nM
Cc1cc(-c2cnc3c(NCCN(C)C)cc(Oc4cccnc4)nn23)ccc1C(=O)NC1CC1 [Example 524, N-cyclopropyl-4-[8-{[2-(dimethylamino)ethyl]amino}-6-(pyridin-3-yloxy)imidazo [1,2-b]pyridazin-3-yl]-2-methylbenzamide] | 2.3 nM
Cc1cc(-c2cnc3c(NCCC(F)(F)F)cc(Oc4ccc(F)c(F)c4)nn23)ccc1C(=O)NC1CC1 [Example 260, N-cyclopropyl-4-{6-(3,4-difluorophenoxy)-8-[(3,3,3-trifluoropropyl)amino]imidazo[1,2-b]pyridazin-3-yl}-2-methylbenzamide] | 0.2 nM
Cc1cc(-c2cnc3c(NCCC(F)(F)F)cc(SCCC(C)(C)C)nn23)ccc1C(=O)NC1CC1 [Example 226, N-cyclopropyl-4-{6-[(3,3-dimethylbutyl)sulfanyl]-8-[(3,3,3-trifluoropropyl)amino]imidazo[1,2-b]pyridazin-3-yl}-2-methylbenzamide] | 1.3 nM
Cc1cc(-c2cnc3c(NCC(C)(C)O)cc(SC4CCCC4)nn23)ccc1C(=O)NC1CC1 [Example 336, 4-{6-(cyclopentylsulfanyl)-8-[(2-hydroxy-2-methylpropyl)amino]imidazo[1,2-b]pyridazin-3-yl}-N-cyclopropyl-2-methyl-benzamide] | 1 nM
Cc1cc(-c2cnc3c(NCC4CCSCC4)cc(Oc4cccc(F)c4F)nn23)ccc1C(=O)NC1CC1 [Example 293, N-cyclopropyl-4-{6-(2,3-difluorophenoxy)-8-[(tetrahydro-2H-thiopyran-4-ylmethyl)amino]imidazo[1,2-b]pyridazin-3-yl}-2-methylbenzamide] | 0.4 nM
CNc1cc(Oc2cncc(F)c2)nn2c(-c3ccc(C(=O)NC4CC4)c(C)c3)cnc12 [Example 533, N-cyclopropyl-4-{6-[(5-fluoropyridin-3-yl)oxy]-8-(methylamino)imidazo [1,2-b]pyridazin-3-yl}-2-methylbenzamide] | 1.2 nM
Cc1cc(-c2cnc3c(NCC(C)C)cc(C(=O)NCCO)nn23)ccc1C(=O)NC1CC1 [Example 199, 3-[4-(Cyclopropylcarbamoyl)-3-methylphenyl]-N-(2-hydroxyethyl)-8-[(2-methylpropyl)amino]imidazo[1,2-b]pyridazine-6-carboxamide] | 6.9 nM
CCNC(=O)c1ccc(-c2cnc3c(NCCC(F)(F)F)cc(Oc4ccc(Cl)cc4)nn23)cc1C [Example 559, 4-{6-(4-chlorophenoxy)-8-[(3,3,3-trifluoropropyl)amino]imidazo[1,2-b]pyridazin-3-yl}-N-ethyl-2-methylbenzamide] | 0.6 nM
CC(C)(O)CNc1cc(Oc2ccccc2)nn2c(-c3ccc(C(=S)NC4CC4)cc3)cnc12 [Example 243, N-cyclopropyl-4-{8-[(2-hydroxy-2-methylpropyl)amino]-6-phenoxyimidazo[1,2-b]pyridazin-3-yl}benzenecarbothioamide] | 0.9 nM
CNC(=O)c1ccc(-c2cnc3c(NCCOC)cc(Oc4ccc(F)c(F)c4)nn23)cc1C [Example 582, 4-{6-(3,4-difluorophenoxy)-8-[(2-methoxyethyl)a-mino]imidazo[1,2-b]pyridazin-3-yl}-N,2-dimethylbenzamide] | 3.8 nM
